From patent US10933053B2, “Treating infections with ceftolozane/tazobactam in subjects having impaired renal function” (MERCK SHARP & DOHME CORP., priority 2013, dated 2021)

Assay: Population PK model of ceftolozane and tazobactam (healthy volunteers, renal impairment, cUTI/cIAI patients)
Details: for CLd, population estimate: intercompartmental clearance; for Vc (L)^d, population estimate: peripheral volume of distribution per footnote
Protocol: A population-PK analysis was performed on plasma ceftolozane and tazobactam concentration-time data from adult subjects enrolled in 10 studies. Subjects were included from multiple sites and all studies were performed in accordance with the International Conference on Harmonization guidelines on good clinical practice and the Declaration of Helsinki. An investigational review board approved the study protocols at each site.
Serum concentration data were analyzed from 5 studies in healthy volunteers (n=184), 3 studies in subjects with varying degrees of renal impairment (n=42), and 2 phase 2 studies in patients with bacterial infections (cUTIs [n=73] and cIAIs [n=77]). In all studies, ceftolozane was administered as a 1-hour intravenous infusion either alone or in combination with tazobactam at a fixed 2:1 ratio (ceftolozane:tazobactam). […] In the phase 2 trials, cUTI patients received ceftolozane alone 1000 mg (q8h) and cIAI patients received ceftolozane/tazobactam 1000/500 mg (q8h).
All subjects who received at least 1 dose of study medication and had at least 1 measurement of ceftolozane or tazobactam were included (N=376). Plasma concentrations of ceftolozane and tazobactam were determined by a validated liquid-chromatography-tandem mass spectrometry assay (MicroConstants, Inc., San Diego, Calif.) described previously. Concentrations below the limit of quantitation (BLQ), as defined previously, were considered as missing. No substitutions were made to account for these missing data points.
Base model development. The model was developed in 2 stages: a preliminary PK model was developed based on datasets from 3 studies. In the current analysis, the structural model was refined using the PK data from 10 studies (including patients with cUTI or cIAI) and the covariate analysis repeated. The results based on this revised model are presented here. A nonlinear mixed-effects model was developed with Phoenix® NLME™ software, version 1.2, 2012 (Certara L. P. Pharsight, St. Louis, Mo.) using first-order maximum likelihood estimation, and a 2-compartment structure model was fitted to the plasma concentration time data. The First Order Conditional Estimation-Extended Least Squares (FOCE-ELS) engine was used for model fitting. The software R (R Foundation for Statistical Computing, Vienna, Austria, 2013) was used to generate tables of post hoc PK parameters and descriptive statistics.
Sources of variability, that may affect drug exposure, were identified using correlation plots of individual random effects (ETA with mean 0 and estimated variance ? ^2) of parameters such as systemic clearance (CL) and central volume of distribution (Vc) versus covariates. Extrinsic covariates analyzed included dose levels, drug-drug interactions between ceftolozane and tazobactam, and disease status (bacterial infections). Intrinsic covariates analyzed included body weight, age, sex, ethnicity, and baseline calculated CrCL). […] Renal impairment was categorized as normal (CrCL≥90 mL/min), mild (CrCL≥50-<90 mL/min), moderate (CrCL≥30-<50 mL/min), and severe (CrCL≥15-<30 mL/min).
Scatter plots were used to examine the effect of continuous variables and box plots were used for categorical variables. […] Covariates were introduced in a multiplicative order using a power model standardized by the median for continuous covariates and a linear model with an exponentiated factor relative to the reference for categorical covariates.
Final population PK model: evaluation and performance. The final population-PK models for ceftolozane and tazobactam were evaluated using standard diagnostics, goodness-of-fit criteria, nonparametric bootstrap resampling, and visual predictive check (VPC).

Row | SMILES | Exponent of the relationship between CLcr and CL (Table 31 model) | Interindividual variability of CL, estimate (Table 31 model) [%] | Interindividual variability of Vc, estimate (Table 31 model) [%] | Proportional shift in Vc for infected patients (Table 31 model) | Vc, population estimate (Table 31 model) [L] | CLd, population estimate (Table 31 model) [L/h] | Vc (L)^d, population estimate (Table 31 model) [L] | between-subject variability (BSV) of CL (final model) [%] | also measured
1 | Cn1c(N)c(NC(=O)NCCN)c[n+]1CC1=C(C(=O)O)N2C(=O)[C@@H](NC(=O)/C(=N\OC(C)(C)C(=O)O)c3nsc(N)n3)[C@H]2SC1 [Ceftolozane, (6R,7R)-3-[(5-amino-4-{[(2-aminoethyl)carbamoyl]amino}-1-methyl-1H-pyrazol-2-ium-2-yl)methyl]-7-({(2Z)-2-(5-amino-1,2,4-thiadiazol-3-yl)-2-[(1-carboxy-1-methylethoxy)imino]acetyl}amino)-8-oxo-5-thia-1-azabicyclo[4.2.0]oct-2-ene-2-carboxylate] | 0.75 | 34.3 | 34.0 | 1.37 | 11.8 | 0.884 | 2.88 | 33.0 | Exponent of the relationship between weight and CL (Table 31 model): 0.76; Proportional shift in CL for infected patients (Table 31 model): 1.26; Vc, population PK (cIAI): 18.2 L; Vc, population PK (cUTI, at 74 kg body weight): 13.8 L; CL, population estimate (human): 5.14 L/h; inter-compartment clearance (CL2), population PK (human): about 1 L/h; volume of distribution in the peripheral compartment (Vp), population PK (human): about 3 L; CL higher than in healthy subjects (patients with cUTI and cIAI): about 20%
2 | C[C@]1(Cn2ccnn2)[C@H](C(=O)O)N2C(=O)C[C@H]2S1(=O)=O [Tazobactam, tazobactam] | 0.67 | 50.2 | 52.5 | 1.47 | 14.2 | 3.13 | 4.29 | 50.2 | power function of baseline CrCL on CL ([CrCL/115] exponent): 0.67; CL, population estimate (final model): 18.0 L/h; between-subject variability (BSV) of Vc (final model): 52.5%; inter-compartment clearance (CL2), population PK (final model): 3.13 L/h; volume of distribution in the peripheral compartment (Vp), population PK (final model): 4.29 L; CL, population estimate (previously-developed population PK model (Table 31)): 18.0 L/h; Vc, population estimate (subjects without infection): 14.2 L
